Consider ten molecules from patent US11759462B2, “Spirocyclic compounds as tryptophan hydroxylase inhibitors” (priority 2013, dated 2023).

Where two headings read alike, the source gives them in different places.

In the assay the target is T1, Recombinant human TPH1 (MBP tagged) (Homo sapiens, UniProt P17752).
T1 construct: cloning full length human TPH1 cDNA in to a bacterial pMAL-c5E expression vector; made in house; host or cells: E. coli BL21 (DE3)
T1 sequence (P17752 1-444): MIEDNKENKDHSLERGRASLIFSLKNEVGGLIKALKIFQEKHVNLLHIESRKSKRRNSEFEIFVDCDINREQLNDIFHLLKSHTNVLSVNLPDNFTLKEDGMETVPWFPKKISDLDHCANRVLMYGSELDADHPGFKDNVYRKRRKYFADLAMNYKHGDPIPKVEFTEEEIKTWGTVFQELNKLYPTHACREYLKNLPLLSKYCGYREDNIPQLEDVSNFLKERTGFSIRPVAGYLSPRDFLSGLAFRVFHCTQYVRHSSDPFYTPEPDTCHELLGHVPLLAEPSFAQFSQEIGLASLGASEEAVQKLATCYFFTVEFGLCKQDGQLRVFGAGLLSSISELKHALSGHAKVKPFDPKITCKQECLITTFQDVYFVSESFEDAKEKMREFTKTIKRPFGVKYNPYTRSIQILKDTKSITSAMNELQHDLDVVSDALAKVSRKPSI
In words: TPH1 in vitro inhibition assay (kinetic fluorescence). It is filed as biochemical. The procedure, abridged:
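Final mix: 15 nM MBP-TPH1, 30 μM Trp, 36 μM 6-methyltetrahydropterin, 25 μM ferrous ammonium sulfate, 50 mM MES pH 7.1, 1% DMSO, room temperature.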

The mark [1] stands for this setting: read-out: TPH1 Range (TPH1 inhibition IC50).
The mark [2] stands for this setting: TPH1 Range (TPH1 inhibition IC50).

The term IC50 denotes the midpoint of a concentration-inhibition curve. `Nc1nc(O[C@H](c2ccc(-c3cccc(C(F)(F)F)c3)cc2)C(F)(F)F)cc(N2CCC3(CC2)CN[C@H](C(=O)O)C3)n1` [Example 55as, (S)-8-(2-amino-6-((R)-2,2,2-trifluoro-1-(3′-(trifluoromethyl)-[1,1′-biphenyl]-4-yl)ethoxy)pyrimidin-4-yl)-2,8-diazaspiro[4.5]decane-3-carboxylic acid]: the IC50 under setting [1] is 0.05 to 0.3 µM. Still for that read-out and setting: as for `Nc1nc(O[C@H](c2ccc(-c3cccc(OC(F)(F)F)c3)cc2)C(F)(F)F)cc(N2CCC3(CC2)CN[C@H](C(=O)O)C3)n1` [Example 55at, (S)-8-(2-amino-6-((R)-2,2,2-trifluoro-1-(3′-(trifluoromethoxy)-[1,1′-biphenyl]-4-yl)ethoxy)pyrimidin-4-yl)-2,8-diazaspiro[4.5]decane-3-carboxylic acid], the figure is 0.05 to 0.3 µM.

For `CCOc1cccc(-c2ccc([C@@H](Oc3cc(N4CCC5(CC4)CN[C@H](C(=O)O)C5)nc(N)n3)C(F)(F)F)cc2)c1` [Example 55au, (S)-8-(2-amino-6-((R)-1-(3′-ethoxy-[1,1′-biphenyl]-4-yl)-2,2,2-trifluoroethoxy)pyrimidin-4-yl)-2,8-diazaspiro[4.5]decane-3-carboxylic acid], the IC50 under setting [1] was in the range of 0.05 to 0.3 µM.

Consider `CC(C)Oc1cccc(-c2ccc([C@@H](Oc3cc(N4CCC5(CC4)CN[C@H](C(=O)O)C5)nc(N)n3)C(F)(F)F)cc2)c1` [Example 55av, (S)-8-(2-amino-6-((R)-2,2,2-trifluoro-1-(3′-isopropoxy-[1,1′-biphenyl]-4-yl)ethoxy)pyrimidin-4-yl)-2,8-diazaspiro[4.5]decane-3-carboxylic acid], for which, under setting [1], the IC50 was 0.05 to 0.3 µM.

As for `Nc1nc(O[C@H](c2ccc(-c3cccnc3)cc2)C(F)(F)F)cc(N2CCC3(CC2)CN[C@H](C(=O)O)C3)n1` [Example 55aw, (S)-8-(2-amino-6-((R)-2,2,2-trifluoro-1-(4-(pyridin-3-yl)phenyl)ethoxy)pyrimidin-4-yl)-2,8-diazaspiro[4.5]decane-3-carboxylic acid], under setting [1], the IC50 fell in the range of 0.3 to 3 µM. The same measure, in the same setting: as for `Nc1nc(O[C@H](c2ccc(-c3ccncc3)cc2)C(F)(F)F)cc(N2CCC3(CC2)CN[C@H](C(=O)O)C3)n1` [Example 55ax, (S)-8-(2-amino-6-((R)-2,2,2-trifluoro-1-(4-(pyridin-4-yl)phenyl)ethoxy)pyrimidin-4-yl)-2,8-diazaspiro[4.5]decane-3-carboxylic acid], the figure is 0.05 to 0.3 µM. The same measure, in the same setting: the result for `Nc1nc(O[C@H](c2ccc(-c3cncnc3)cc2)C(F)(F)F)cc(N2CCC3(CC2)CN[C@H](C(=O)O)C3)n1` [Example 55ay, (S)-8-(2-amino-6-((R)-2,2,2-trifluoro-1-(4-(pyrimidin-5-yl)phenyl)ethoxy)pyrimidin-4-yl)-2,8-diazaspiro[4.5]decane-3-carboxylic acid] reads 0.3 to 3 µM. With `Cn1ncc2cc(-c3ccc([C@@H](Oc4cc(N5CCC6(CC5)CN[C@H](C(=O)O)C6)nc(N)n4)C(F)(F)F)cc3)ccc21` [Example 55b, (S)-8-(2-amino-6-((R)-2,2,2-trifluoro-1-(4-(1-methyl-1H-indazol-5-yl)phenyl)ethoxy)pyrimidin-4-yl)-2,8-diazaspiro[4.5]decane-3-carboxylic acid], the IC50 under setting [2] is less than 0.05 µM. On the same count and under the same terms, as for `Cc1nn(C)c2cc(-c3ccc([C@@H](Oc4cc(N5CCC6(CC5)CN[C@H](C(=O)O)C6)nc(N)n4)C(F)(F)F)cc3)ccc12` [Example 55ba, (S)-8-(2-amino-6-((R)-1-(4-(1,3-dimethyl-1H-indazol-6-yl)phenyl)-2,2,2-trifluoroethoxy)pyrimidin-4-yl)-2,8-diazaspiro[4.5]decane-3-carboxylic acid], the figure is less than 0.05 µM. `Cc1c2ccc(-c3ccc([C@@H](Oc4cc(N5CCC6(CC5)CN[C@H](C(=O)O)C6)nc(N)n4)C(F)(F)F)cc3)cc2nn1C` [Example 55bb]: the IC50 under setting [1] was less than 0.05 µM.
